Experimental data taken from PubChem BioAssay (NCI).
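The compound was tested at five concentrations on cells cultured in 96-well plates, with a 48-hour exposure period. Here, GI50 denotes the concentration required for 50% inhibition of growth. TGI: total growth inhibition.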

Tests used:
Assay in all cases: inhibition of tumour cell growth, NCI panel, 48 h
DU-145 prostate = tested on: DU-145 prostate
HS 578T breast = tested on: HS 578T breast
MDA-MB-435 = tested on: MDA-MB-435
NCI/ADR-RES ovarian = tested on: NCI/ADR-RES ovarian
PC-3 prostate = tested on: PC-3 prostate
DMS 273 small cell lung = tested on: DMS 273 small cell lung
KM20L2 colon = tested on: KM20L2 colon
M19-MEL melanoma = tested on: M19-MEL melanoma
HOP-18 NSCLC = tested on: HOP-18 NSCLC
SNB-78 CNS = tested on: SNB-78 CNS

| SMILES | GI50 (DU-145 prostate) [µM] | TGI (DU-145 prostate) [µM] | GI50 (HS 578T breast) [µM] | TGI (HS 578T breast) [µM] | GI50 (MDA-MB-435) [µM] | TGI (MDA-MB-435) [µM] | GI50 (NCI/ADR-RES ovarian) [µM] | TGI (NCI/ADR-RES ovarian) [µM] | GI50 (PC-3 prostate) [µM] | TGI (PC-3 prostate) [µM] | TGI (DMS 273 small cell lung) [µM] | TGI (KM20L2 colon) [µM] | TGI (M19-MEL melanoma) [µM] | TGI (HOP-18 NSCLC) [µM] | TGI (SNB-78 CNS) [µM] |
| --- | --- | --- | --- | --- | --- | --- | --- | --- | --- | --- | --- | --- | --- | --- | --- |
| O=S(=O)(Nc1ccc(Cl)c(Cl)c1)c1ccc(-c2cnc(C3CC3)o2)cc1 | 0.736 | 13.9 | 0.455 | 30.7 | 0.139 | 0.674 | 0.345 | 4.91 | 0.474 | 14.5 |  |  |  |  |  |
| C[C@H]1CC[C@@H]2[C@@H](C)[C@H]3[C@H](C[C@H]4[C@@H]5CC=C6C[C@@H](O)CC[C@]6(C)[C@H]5CC[C@]34C)N2C1 |  | > 100 |  | 97.9 |  | > 100 |  | > 100 |  | > 100 |  |  |  |  |  |
| O=C1/C(=C/c2ccc(O)cc2)Oc2ccccc21 |  | > 100 |  | > 100 |  | > 100 |  | > 100 |  | > 100 |  |  |  |  |  |
| Cc1c(C2CCSc3ccccc3N2)sc2ccccc12 (stereo unspecified) |  | > 100 |  | > 100 |  | > 100 |  | > 100 |  | > 100 |  |  |  |  |  |
| Cc1ccc([N+]2=NC(c3ccccc3)=NN(c3ccccc3)C2)cc1 |  |  |  |  |  |  |  |  |  |  | > 100 | > 100 | > 100 |  |  |
| O=C1CC2OCC=C3CN4CCC5(C(=O)O)C(N1)C2C3CC45 (stereo unspecified) |  | > 100 |  | > 100 |  | > 100 |  | > 100 |  | > 100 |  |  |  |  |  |
| C[C@@H]1Cc2c(ccc3[nH]ncc23)[C@@H](c2ccc(NC3CN(CCCF)C3)cn2)N1CC(F)(F)F | 35.2 | > 100 | 15 | 41 | 17.2 | 34.8 | 32.3 | > 100 | 15.6 | 47.8 |  |  |  |  |  |
| C=Cc1cc(OC)c2c(c1)c(=O)oc1c2cc(OC)c2c(O)ccc(C3OC(C(C)O)C(O)C3O)c21 (stereo unspecified) |  |  | 0.0191 | 0.0617 | 0.0145 | 0.0337 | 0.012 | 0.271 | 0.0105 | 0.153 |  |  |  |  |  |
| CCSc1nc(N)c2cnn(CC)c2n1 | 5.75 | 40.3 | 4.19 | 26 | 7.64 | 37.8 | 18.5 | 63.3 | 4.34 | 14.8 |  |  |  |  |  |
| N/C(CC(=O)NOC(=O)c1ccccc1)=N/OC(=O)c1ccccc1 |  | > 100 |  | > 100 |  | > 100 |  | > 100 |  | > 100 |  |  |  |  |  |
| CCN(CC)CCNc1ccc([N+](=O)[O-])c2nc3ccc(OC)cc3c(N)c12 |  | 3.07 |  | 2.89 |  | 2.98 |  | 3.53 |  | 2.78 |  |  |  |  |  |
| CC(=O)OC1=C(CC(C)(C)C)C(=O)c2ccccc2C1=O |  | > 100 |  | 50.5 |  | 60.8 |  | 85.3 |  | > 100 |  |  |  |  |  |
| O=C(N/N=C/c1ccc(N(CCCl)CCCl)cc1)c1ccc(C(=O)N/N=C/c2ccc(N(CCCl)CCCl)cc2)cc1 | 0.341 | > 100 | 3.54 | > 100 | 29.8 | > 100 | > 100 | > 100 |  |  |  |  |  |  |  |
| C=C(CN1CCN(c2ccc(F)c(Cl)c2)CC1)c1ccc(C(=O)Nc2ccccc2N)cc1 | 8.76 | 40.4 | 7.39 | > 100 | 3.2 | 12.6 | 2.01 | 5.09 | 2.34 | 9.23 |  |  |  |  |  |
| CN1CCN(c2nc3cc(F)ccc3n3cccc23)CC1 |  |  |  | 97.9 |  | 64.6 |  | > 100 |  | > 100 |  |  |  |  |  |
| Cc1c2ccccc2c(C)n2c1nc1cc(Cl)c(Cl)cc12 | > 100 | > 100 | > 100 | > 100 | > 100 | > 100 | > 100 |  | 31.4 | > 100 |  |  |  |  |  |
| Nc1ccn(C2CC3OCC3O2)c(=O)n1 (stereo unspecified) |  | > 100 |  | > 100 |  | > 100 |  | > 100 |  | > 100 |  |  |  |  |  |
| Cc1cn2cc(-c3ccc4c(c3)CC(=O)N4)nc2s1 | > 100 | > 100 | > 100 | > 100 | 91 | > 100 | > 100 | > 100 | > 100 | > 100 |  |  |  |  |  |
| CC(CC(=O)Nc1ccc(NC(=O)CC(C)N=NC(N)=O)cc1)N=NC(N)=O (stereo unspecified) |  |  |  |  |  |  |  |  |  |  | > 100 | > 100 | > 100 | > 100 |  |
| CNc1nc(-c2ccc3c(N)n[nH]c3c2)cc(N2C[C@@H](C(=O)NC3CCCCC3)CC[C@H]2C)n1 | 5.91 | 21.3 | 1.06 | 8.86 | 1.11 | 14.4 | 13.3 | 41.3 | 0.405 | 18.4 |  |  |  |  |  |
| CC1/C(=N/O)CC(c2ccccc2)N(N=O)C1c1ccccc1 (stereo unspecified) |  | > 100 |  | > 100 |  | > 100 |  | > 100 |  | > 100 |  |  |  |  |  |
| CN(C)Cc1cc(C(C)(C)C)cc(CN(C)C)c1O |  | > 100 |  | > 100 |  | > 100 |  | > 100 |  | > 100 |  |  |  |  |  |
| Oc1ccc(O)c(-n2cccn2)c1-n1cccn1 |  |  |  |  |  |  |  |  |  |  | > 100 | > 100 | > 100 |  | > 100 |
| CC[C@@H](C(=O)[C@@H](C)[C@@H](O)[C@H](C)[C@@H]1O[C@@H]([C@@H](CC)C(=O)O)CC[C@@H]1C)[C@H]1O[C@]2(C=C[C@@H](O)[C@]3(CC[C@@](C)([C@H]4CC[C@](O)(CC)[C@H](C)O4)O3)O2)[C@H](C)C[C@@H]1C | 1.71 | 28.5 | 0.914 | 36.1 | 1.08 | 2.72 | 1.32 | 51.4 | 0.084 | 32.6 |  |  |  |  |  |
| Cc1nc2sc(C(=O)Nc3ccccc3)c(N)c2cc1C(=O)c1ccccc1 | 1.73 | > 50 | 2.47 | > 50 |  |  | 1.9 | > 50 | 1.66 | > 50 |  |  |  |  |  |
| CC1=CC(=O)N2C(OC[C@@H]2c2ccccc2)O1 (stereo partly specified) |  |  |  |  |  |  |  |  |  |  |  | > 100 | > 100 | > 100 |  |
| O=[N+]([O-])c1ccc2nc(-c3ccc(Cl)cc3)[nH]c2c1 |  | 60.5 |  | 71.7 |  | 46.8 |  | 57.6 |  | 63.6 |  |  |  |  |  |
